From patent EP4782433A1, “METHOD FOR PRODUCING ARYLAMIDE DERIVATIVE” (CHUGAI SEIYAKU KABUSHIKI KAISHA, priority 2023, dated 2025)

Tests used:
[1] = in water at 25°C; cited from earlier work
[2] = physchem; conditions: 25 °C, organic solvent or mixture, thermodynamic from solid
[3] = Solubility of the additive or its sodium salt in a mixed solvent of tetrahydrofuran, acetone, tert-butyl methyl ether and water (supernatant analysed by HPLC); conditions: 25 °C, organic solvent or mixture, thermodynamic from solid

| Compound | pKa [1] | solubility ([2]; Solubility of additive) | solubility ([2]; Solubility of sodium salt of additive) | solubility [3] | solubility ([3]; Solubility of additive, 25°C, tetrahydrofuran:acetone:tert-butyl methyl ether 8:10:5 by volume, water 3% by mass, stirred for 6 hours or longer) |
| --- | --- | --- | --- | --- | --- |
| CC(=O)Nc1ccc(O)cc1 [Acetaminophen] | 9.78 | ≥ 70 mM | 40 mM | – | – |
| Cc1cccc(O)c1 [m-Cresol] | – | – | – | ≥ 50 mM | ≥ 50 mM |
